We go through six compounds from patent US20160297761A1, “NOVEL INHIBITORS OF GLUTAMINASE” (RHIZEN PHARMACEUTICALS SA, priority 2014, published 2016).

For data set [1], the target named is T1, L-glutaminase present in mice brain homogenate (Glutaminase(Brain)) (Mus musculus, UniProt D3Z7P3).
T1 sequence (D3Z7P3 55-674): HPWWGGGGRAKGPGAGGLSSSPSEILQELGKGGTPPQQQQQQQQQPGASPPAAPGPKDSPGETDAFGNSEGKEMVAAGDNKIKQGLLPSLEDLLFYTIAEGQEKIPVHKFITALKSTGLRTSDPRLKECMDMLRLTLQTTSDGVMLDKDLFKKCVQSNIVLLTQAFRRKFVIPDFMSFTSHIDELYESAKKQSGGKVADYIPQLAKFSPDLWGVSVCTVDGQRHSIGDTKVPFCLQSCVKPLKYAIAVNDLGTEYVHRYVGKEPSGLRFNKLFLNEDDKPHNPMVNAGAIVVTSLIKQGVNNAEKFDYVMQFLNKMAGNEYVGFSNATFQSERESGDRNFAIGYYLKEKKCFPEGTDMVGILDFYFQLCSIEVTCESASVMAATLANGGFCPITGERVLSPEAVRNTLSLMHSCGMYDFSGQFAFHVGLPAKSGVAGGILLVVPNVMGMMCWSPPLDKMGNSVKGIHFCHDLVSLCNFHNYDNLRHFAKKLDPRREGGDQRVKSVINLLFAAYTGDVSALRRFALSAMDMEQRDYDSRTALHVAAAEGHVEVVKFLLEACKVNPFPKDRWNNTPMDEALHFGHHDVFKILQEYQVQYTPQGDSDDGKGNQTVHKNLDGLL
The data set can be described thus: Glutaminase enzyme activity using glutaminase enzyme from mice brain/kidney homogenate (Nessler's reagent, ammonia). The following applies: mice brain homogenate; for inhibition at 0.1 µM: read-out: Glutaminase(Brain) activity % inhibition 0.1 μM; for inhibition at 1 µM: read-out: Glutaminase(Brain) activity % inhibition @1 μM. It is filed as biochemical.

In the next data set the test system is cancer cell lines. In words: In vitro cell proliferation assay in cancer cell lines (MTT dye reduction, 72 h). It counts as cell-based. As to conditions: cancer cell line not named, 10% FBS media. As to the method:
Assay 4: In Vitro Cell Proliferation Assay in Cancer Cell Lines
Growth inhibition assays were carried out using 10% FBS supplemented media. Cells were seeded at a concentration of 5000-20,000 cells/well in a 96-well plate. Test compounds at a concentration range from 0.01 to 10000 nM were added after 24 hours. Growth was assessed using the 3-[4,5-dimethylthiazol-2-yl]-2,5-diphenyltetrazolium bromide (MIT) dye reduction test at 0 h (prior to the addition of the test compound) and 72 hours after the addition of test compound. Absorbance was read on a Fluostar Optima (BMG Labtech, Germany) at a wave length of 450 nm. Data were analysed using GraphPad Prism and percent inhibition due to the test compound compared to the control was calculated accordingly.
For orientation: Tetrazolium assays rely on reduction of a dye to a coloured formazan, in cell work by metabolically active cells.

One may read the inhibition as the relative decrease from the control value, in per cent. The term GI50 denotes the concentration at which growth is held to half of that of the control. As a reminder, the melting point is the temperature, or range, at which the solid turns liquid. On to `O=C(Cc1ccccn1)Nc1ccc(CCCCc2nnc(NC(=O)Cc3cccc(OC(F)(F)F)c3)s2)cn1` [Example-8, 2-(Pyridin-2-yl)-N-(5-(4-(5-(2-(3-(trifluoromethoxy)phenyl)acetamido)-1,3,4-thiadiazol-2-yl)butyl)pyridin-2-yl)acetamide], for which the melting point was in the range of 176 to 178 °C. Also, in data set [1], the inhibition at 0.1 µM lay in the range of 25 to 50% and the inhibition at 1 µM was 50 to 75%. Further, the 50% growth inhibitory concentration (GI50) in the data set with cancer cell lines was < 0.1 µM.
In the case of `O=C(Cc1ccncc1)Nc1ccc(CCCCc2nnc(NC(=O)Cc3cccc(OC(F)(F)F)c3)s2)cn1` [Example-22, 2-(Pyridin-4-yl)-N-(5-(4-(5-(2-(3-(trifluoromethoxy)phenyl)acetamido)-1,3,4-thiadiazol-2-yl)butyl)pyridin-2-yl)acetamide], the melting point is 135 to 137 °C. For the same compound, in data set [1], the inhibition at 0.1 µM is < 25% and the inhibition at 1 µM fell in the range of 50 to 75%. Also, the 50% growth inhibitory concentration (GI50) with cancer cell lines is 1 to 5 µM.
In turn, `CC(Cl)C(=O)Nc1nnc(CCCCc2ccc(NC(=O)Cc3cccc(OC(F)(F)F)c3)nc2)s1` (stereo not shown) [Example-23, 2-Chloro-N-(5-(4-(6-(2-(3-(trifluoromethoxy)phenyl)acetamido)pyridin-3-yl)butyl)-1,3,4-thiadiazol-2-yl)propanamide] showed a melting point of 132 to 134 °C. Also, in data set [1], the inhibition at 0.1 µM was < 25% and the inhibition at 1 µM was < 25%. The compound further had a GI50 in the data set on cancer cell lines of 5 to 10 µM.
Turning to `O=C(Cc1cccc(OC(F)(F)F)c1)Nc1ccc(CCCCc2nnc(NC(=O)Cn3cccn3)s2)cn1` [Example-27, N-(5-(4-(5-(2-(1H-pyrazol-1-yl)acetamido)-1,3,4-thiadiazol-2-yl)butyl)pyridin-2-yl)-2-(3-(trifluoromethoxy)phenyl)acetamide], the melting point was 174 to 178 °C. For the same compound, in data set [1], the inhibition at 0.1 µM was < 25% and the inhibition at 1 µM fell in the range of 50 to 75%. For the same compound, in the data set with cancer cell lines, the GI50 lay in the range of 5 to 10 µM.
As for `O=C(Cc1cccc(OC(F)(F)F)c1)Nc1nnc(CC2CCC(Cc3nnc(NC(=O)Cc4cccc(OC(F)(F)F)c4)s3)CC2)s1` (stereo not shown) [Example-104, N,N′-(5,5′-(cyclohexane-1,4-diylbis(methylene))bis(1,3,4-thiadiazole-5,2-diyl))bis(2-(3-(trifluoromethoxy)phenyl)acetamide)], the melting point is 240 to 244 °C. In addition, in data set [1], the inhibition at 0.1 µM was < 25% and the inhibition at 1 µM is < 25%.
`O=C(Cc1cccc(OC(F)(F)F)c1)Nc1nnc(CC2CCC(Cc3nnc(NC(=O)Cc4ccccn4)s3)CC2)s1` (stereo not shown) [Example-105, 2-(Pyridin-2-yl)-N-(5-((4-((5-(2-(3-(trifluoromethoxy)phenyl)acetamido)-1,3,4-thiadiazol-2-yl)methyl)cyclohexyl)methyl)-1,3,4-thiadiazol-2-yl)acetamide] gave a melting point of 278 to 280 °C. In data set [1], the inhibition at 0.1 µM is < 25% and the inhibition at 1 µM was < 25%.
